Experimental data: patent publication US20250388560A1, “AROMATIC COMPOUND AND USE THEREOF” (HITGEN INC., priority 2023, published 2025)

Molecular target: TRIM21 protein (Homo sapiens (Human), UniProt P19474)
Assay: SPR binding assay (Biacore 8K) of compounds to immobilised TRIM21 protein
Settings: 25° C., steady state affinity model (1:1 binding model), read-out: TRIM21 Kd Test Value
Description: The protein fixation buffer, the running buffer A and the running buffer B were prepared and filtered through a […] membrane prior to use.
A surface of a CM5 chip was washed for three times with 50 mM NaOH at a flow rate of 60.0 μL/min and 60 seconds per wash. […] The CM5 chip was activated for 420 s at a flow rate of 6.0 μL/min. A strep tactin XT fixation buffer fixation built in the twin strep tag capture kit was used to prepare a 50.0 µg/mL Strep tactin XT. The Strep tactin XT was injected at a flow rate of 5.0 μL/min for 600 s. After injection of […], 1 M ethanolamine from the amine coupling kit was injected at a flow rate of 6.0 μL/min for 7 min to close the surface of the CM5 chip.
The running buffer A was used as the protein fixation buffer. The protein fixation buffer and the TRIM21 protein were mixed to prepare a 40.0 µg/mL mixed solution. The 40.0 µg/mL mixed solution was injected at flow rate of 5.0 μL/min for 600 s, and the TRIM21 protein was captured on the CM5 chip through Strep tactin XT.
A compound to be tested was diluted with 100% DMSO to a concentration that was 100 times a required final concentration and mixed evenly, and […] of such solution was added into […] of the running buffer A, followed by centrifugation at 15,000 rpm for 5 min to obtain an X compound solution contained with 1% DMSO.
The X compound was subjected to 8-point, 2-fold serial dilutions with the running buffer B, starting from an initial concentration. The diluted X compound was transferred into the 96-well plate for sample injection.
A Biacore 8K Control software was started, and tests were run in a 25° C. environment. During program running, the running buffer B was used at a flow rate of 30.0 μL/min. The running buffer B was injected for three times to complete balance. […] An injection needle was cleaned with 50% DMSO after each injection.
A response value of binding of the X compound and the TRIM21 protein was corrected after deducting a reference channel and 0 concentration. A binding affinity Kd was matched by a steady state affinity model (1:1 binding model) through the Biacore Insight Evaluation Software.
The binding affinities between X compounds of the embodiments of the present disclosure were tested according the above method.

Chain of TRIM21 protein (P19474 whole entry, species assumed): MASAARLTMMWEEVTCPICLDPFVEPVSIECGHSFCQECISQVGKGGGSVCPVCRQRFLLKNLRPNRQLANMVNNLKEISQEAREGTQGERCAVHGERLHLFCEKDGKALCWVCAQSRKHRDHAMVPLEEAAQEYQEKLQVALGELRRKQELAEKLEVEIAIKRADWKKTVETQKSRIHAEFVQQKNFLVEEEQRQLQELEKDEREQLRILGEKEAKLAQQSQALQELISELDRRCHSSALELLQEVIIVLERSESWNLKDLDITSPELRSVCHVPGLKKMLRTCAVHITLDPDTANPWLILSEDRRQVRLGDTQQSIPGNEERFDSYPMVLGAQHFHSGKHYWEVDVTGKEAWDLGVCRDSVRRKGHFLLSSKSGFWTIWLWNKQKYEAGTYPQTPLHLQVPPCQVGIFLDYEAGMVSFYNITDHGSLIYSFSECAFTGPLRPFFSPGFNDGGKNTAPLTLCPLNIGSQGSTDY

Structure (SMILES)	Kd [nM]
CSc1ccccc1-c1ccc(C(=O)N(C)CC2CCCCC2(F)F)c(S(C)(=O)=O)c1 (stereo not shown) [Compound 5]	1000 to 10000
CSc1ccccc1-c1ccc(C(=O)N(C)CC2(F)CCCCC2)c(S(C)(=O)=O)c1 [Compound 6]	100 to 1000
CSc1ccccc1-c1ccc(C(=O)N(C)Cc2cnoc2)c(S(C)(=O)=O)c1 [Compound 7]	100 to 1000
CSc1ccccc1-c1ccc(C(=O)N(C)C2CCCCC2)c(S(C)(=O)=O)c1 [Compound 9]	1000 to 10000
CSc1ccccc1-c1ccc(C(=O)N(C)c2ccccc2)c(S(C)(=O)=O)c1 [Compound 12]	1000 to 10000
CSc1ccccc1-c1ccc(C(=O)N(C)Cc2cc[nH]c(=O)c2)c(S(C)(=O)=O)c1 [Compound 18]	1000 to 10000
COc1ccccc1-c1ccc(C(=O)N(C)[C@H](C)C2CCC2)c(S(C)(=O)=O)c1 [Compound 24]	1000 to 10000
COc1ccccc1-c1ccc(C(=O)N(C)CC2CCOC2)c(S(C)(=O)=O)c1 (stereo not shown) [Compound 25]	1000 to 10000
COc1ccccc1-c1ccc(C(=O)N(C)CC2CN(C(C)=O)C2)c(S(C)(=O)=O)c1 [Compound 26]	> 10000
COc1ccccc1-c1ccc(C(=O)N(C)CC2COC2)c(S(C)(=O)=O)c1 [Compound 30]	1000 to 10000
COc1ccccc1-c1ccc(C(=O)N(C)C(C)C2COC2)c(S(C)(=O)=O)c1 (stereo not shown) [Compound 31]	1000 to 10000
COc1ccccc1-c1ccc(C(=O)N(C)[C@H](C)C2CC2)c(S(C)(=O)=O)c1 [Compound 32]	1000 to 10000
COc1ccccc1-c1ccc(C(=O)N(C)[C@H](C)C2CCCC2)c(S(C)(=O)=O)c1 [Compound 33]	1000 to 10000
COc1ccccc1-c1ccc(C(=O)N(C)CC2CCC(O)CC2)c(S(C)(=O)=O)c1 (stereo not shown) [Compound 35]	100 to 1000
Cc1ccccc1-c1ccc(C(=O)N(C)CC2CCCCC2)c(S(C)(=O)=O)c1 [Compound 38]	100 to 1000
CN(CC1CCCCC1)C(=O)c1ccc(-c2ccccc2C(F)(F)F)cc1S(C)(=O)=O [Compound 39]	100 to 1000
CN(CC1CCCCC1)C(=O)c1ccc(-c2ccccc2C(C)(C)O)cc1S(C)(=O)=O [Compound 42]	100 to 1000
COc1cnccc1-c1ccc(C(=O)N(C)CC2CCCCC2)c(S(C)(=O)=O)c1 [Compound 43]	1000 to 10000
CN(CC1CCCCC1)C(=O)c1ccc(-c2ccccc2F)cc1S(C)(=O)=O [Compound 45]	1000 to 10000
CC(C)c1ccccc1-c1ccc(C(=O)N(C)CC2CCCCC2)c(S(C)(=O)=O)c1 [Compound 46]	100 to 1000
CN(CC1CCCCC1)C(=O)c1ccc(-c2cccc3ccoc23)cc1S(C)(=O)=O [Compound 47]	> 10000
COc1cc(F)ccc1-c1ccc(C(=O)N(C)CC2CCCCC2)c(S(C)(=O)=O)c1 [Compound 52]	1 to 10
CN(CC1CCCCC1)C(=O)c1ccc(-c2ccc(F)cc2)cc1S(C)(=O)=O [Compound 54]	1000 to 10000

More lines, now with the values ahead:

Kd [nM]	Structure (SMILES)
100 to 1000	CNC(=O)c1ccc(-c2ccccc2SC)cc1S(C)(=O)=O [Compound 1]
100 to 1000	CSc1ccccc1-c1ccc(C(=O)N(C)CC2CCCCC2)c(S(C)(=O)=O)c1 [Compound 2]
10 to 100	CSc1ccccc1-c1ccc(C(=O)N(C)Cc2ccc3c(c2)OCO3)c(S(C)(=O)=O)c1 [Compound 3]
100 to 1000	CSc1ccccc1-c1ccc(C(=O)N(C)Cc2ccsc2)c(S(C)(=O)=O)c1 [Compound 4]
100 to 1000	CCc1ccccc1CN(C)C(=O)c1ccc(-c2ccccc2SC)cc1S(C)(=O)=O [Compound 8]
100 to 1000	CCC(CC)CN(C)C(=O)c1ccc(-c2ccccc2SC)cc1S(C)(=O)=O [Compound 10]
10 to 100	CSc1ccccc1-c1ccc(C(=O)N(C)Cc2cc[nH]c2)c(S(C)(=O)=O)c1 [Compound 11]
100 to 1000	CSc1ccccc1-c1ccc(C(=O)N(C)CC2CN(C(C)=O)C2)c(S(C)(=O)=O)c1 [Compound 13]
100 to 1000	CSc1ccccc1-c1ccc(C(=O)N(C)[C@H](C)C2CCC2)c(S(C)(=O)=O)c1 [Compound 14]
100 to 1000	CSc1ccccc1-c1ccc(C(=O)N(C)CC2CCOC2)c(S(C)(=O)=O)c1 (stereo not shown) [Compound 15]
100 to 1000	COc1cc(CN(C)C(=O)c2ccc(-c3ccccc3SC)cc2S(C)(=O)=O)ccn1 [Compound 16]
100 to 1000	CSc1ccccc1-c1ccc(C(=O)N(C)[C@H](C)C2CC2)c(S(C)(=O)=O)c1 [Compound 19]
100 to 1000	CSc1ccccc1-c1ccc(C(=O)N(C)[C@H](C)C2CCCC2)c(S(C)(=O)=O)c1 [Compound 20]
10 to 100	CSc1ccccc1-c1ccc(C(=O)N(C)CC2CCOCC2)c(S(C)(=O)=O)c1 [Compound 23]
10 to 100	COc1cc(CN(C)C(=O)c2ccc(-c3ccccc3OC)cc2S(C)(=O)=O)ccn1 [Compound 27]
10 to 100	COc1ccccc1-c1ccc(C(=O)N(C)Cc2cc[nH]c(=O)c2)c(S(C)(=O)=O)c1 [Compound 28]
10 to 100	COc1ccccc1-c1ccc(C(=O)N(C)Cc2cc[nH]c2)c(S(C)(=O)=O)c1 [Compound 29]
100 to 1000	COc1ccccc1-c1ccc(C(=O)N(C)CC2CCOCC2)c(S(C)(=O)=O)c1 [Compound 34]
100 to 1000	COc1ccccc1-c1ccc(C(=O)N(C)CC2CCCCC2)c(S(C)(=O)=O)c1 [Compound 37]
10 to 100	CN(CC1CCCCC1)C(=O)c1ccc(-c2ccc(F)cc2C2CC2)cc1S(C)(=O)=O [Compound 41]
